These results are taken from patent publication US11076597B2, “High stress resistant plant growth regulator and preparation method and use thereof” (SHANGHAI INSTITUTES FOR BIOLOGICAL SCIENCES, CHINESE …, priority 2015, dated 2021).

Where two headings read alike, the source gives them in different places.

Experiment [1] deals with T1, PYL1 receptor-HAB1 protein phosphatase complex (Arabidopsis thaliana, UniProt Q8VZS8).
T1 construct: made in house; host or cells: E. coli BL21 (DE3)
T1 sequence (Q8VZS8 36-211): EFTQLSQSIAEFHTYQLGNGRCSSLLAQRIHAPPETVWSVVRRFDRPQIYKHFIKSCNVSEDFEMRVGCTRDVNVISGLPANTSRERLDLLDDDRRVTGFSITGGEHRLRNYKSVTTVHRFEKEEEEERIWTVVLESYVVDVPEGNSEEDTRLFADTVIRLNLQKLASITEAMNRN
T1 sequence (Q9CAJ0 172-511 partner limits assumed): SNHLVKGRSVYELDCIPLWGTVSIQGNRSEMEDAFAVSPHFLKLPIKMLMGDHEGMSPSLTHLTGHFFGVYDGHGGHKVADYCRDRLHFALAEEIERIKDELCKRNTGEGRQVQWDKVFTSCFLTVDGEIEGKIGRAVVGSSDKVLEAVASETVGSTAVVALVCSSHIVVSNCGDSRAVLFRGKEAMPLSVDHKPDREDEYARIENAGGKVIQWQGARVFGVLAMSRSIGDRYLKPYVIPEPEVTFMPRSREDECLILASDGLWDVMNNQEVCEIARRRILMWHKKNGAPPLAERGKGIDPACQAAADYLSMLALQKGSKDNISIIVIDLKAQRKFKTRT
Put plainly: AlphaScreen assay: promotion of PYL1 receptor binding to PP2C protein phosphatase HAB1. From the text: The construction method of recombinant plasmids for the Arabidopsis thaliana genes PYL1 (amino acid sequence 36-211), PYL2 (amino acid sequence 14-188) with dual tags of 6×His and SUMO sequence and the Arabidopsis thaliana gene HAB1 (amino acid sequence 172-511) with the Biotin tag sequence is described in detail in “A gate-latch-lock mechanism for hormone signaling by abscisic acid receptors” (Nature, Vol 462, 2009). The construction method of recombinant plasmids for PYR1 and PYL7 (whole gene coding sequence) and Soybean GmPYL6 and rice OsPYL2 with dual tags of 6×His and SUMO sequence is the same as that for Arabidopsis PYL2.
The above recombinant plasmid is transformed into competent cell of E. coli BL21 (DE3) (purchased from NEB company), and inoculated into 200 ml of LB liquid medium containing Amp resistance (purchased from OXOID company) and cultured overnight at 37° C. at 200 rpm; and inoculated into 2 L of LB liquid medium containing Amp resistance at a ratio of 1:50-1:100 for an extended culture, and cultured at 37° C., 200 rpm for 3-4 hours, and at a low temperature of 16° C. until OD600 is about 0.8-1.0. Recombinant plasmids for PYR1/PYL1/PYL2/PYL7/GmPYL6/OsPYL2 with dual tags of 6×His and SUMO sequence were induced overnight with 100 μM of IPTG while HAB1 recombinant plasmid with the Biotin tag sequence was induced simultaneously with 100 μM of IPTG and 40 μM of biotin.
After 16 hours of induction, the bacterial solution was centrifuged at 4000 rpm for 20 minutes at 4° C. in a low-speed high-capacity centrifuge, and the bacteria cells were collected. Bacteria cells were resuspended in 50 ml of extraction buffer (containing 20 mM Tris, pH 8.0, 200 mM NaCl and 10% (v/v) glycerol) for per 2 L of bacterial solution and then subjected to pressure-breaking at […] and 4° C. for 3-5 times. The broken cells were subjected to ultracentrifugation, centrifuged at 16000 rpm for 30 minutes, and this process was repeated twice. The supernatant was collected and subjected to an affinity chromatography column. […]
In general terms: Bead proximity is the source of the signal in Alpha formats.

The target of experiment [2] is T2, PYR1 receptor-HAB1 protein phosphatase complex (Arabidopsis thaliana, UniProt O49686).
T2 construct: made in house; host or cells: E. coli BL21 (DE3)
T2 sequence (O49686 1-191): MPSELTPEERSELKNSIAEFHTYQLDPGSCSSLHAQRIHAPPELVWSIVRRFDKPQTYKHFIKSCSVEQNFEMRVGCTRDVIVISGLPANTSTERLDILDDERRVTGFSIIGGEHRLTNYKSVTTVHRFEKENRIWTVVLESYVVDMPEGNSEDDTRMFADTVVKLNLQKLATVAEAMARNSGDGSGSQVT
T2 sequence (Q9CAJ0 172-511 partner limits assumed): T1 sequence (Q9CAJ0 172-511 partner limits assumed)
Put plainly: AlphaScreen assay, PYR1 receptor binding to HAB1. Format: biochemical. Conditions: fraction of the EC50 of ABA; FIG. 2a, 2h. The protocol: The AlphaScreen kit (available from Perkin Elmer) was used, and the method was as follows: a 10× buffer (50 mM MOPS, pH 7.4, 50 mM NaF, 50 mM CHAPS, 0.1 mg/ml bovine serum albumin) diluted at 1:10, each of 100 nM HAB1 with Biotin tag sequence and PYR1/PYL1/PYL2/PYL7/GmPYL6/OsPYL2 protein with dual tags of 6×His and SUMO sequences, corresponding concentrations of (+)-ABA/0224/0304/0706/0708/0713/0715/0428/NC0F4, and 5 μg/ml donor beads and acceptor beads (available from Perkin Elmer) were contained in 150 μl of experimental system. After incubating for 1.5 hours at room temperature in the dark, it was placed into an Envision Plate Reader (available from Perkin Elmer) under the programmed AlphaScreen procedure for readings.
AlphaScreen technology was used to test the ability of the compounds of the present invention to promote PYL receptor binding to PP2C protein phosphatase (HAB1).

[3] abbreviates: FIG. 2b, 6×His-SUMO-tagged PYL1 (aa 36-211), Biotin-tagged HAB1 (aa 172-511), 100 nM each, pH 7.4, 1.5 h room temperature, read-out: EC50.

What is called EC50 is the concentration giving half of the maximal effect.

In turn, `CC1=CC(=O)CC(C)(C)[C@@]1(O)/C=C/C(C)=C\C(=O)O` [ABA, Abscisic Acid, reference compound] showed an EC50 in experiment [1] of 1200 nM.

As for `CCCN1C(=O)OC(C)c2cc(NS(=O)(=O)Cc3c(F)c(F)c(C)c(F)c3F)ccc21` (centres unmarked) [Compound 0224], in experiment [2], the “EC50 value with PYR1 receptor-HAB1 complex as fraction of that of ABA” value is listed as 1/40. In addition, the EC50 in experiment [1] (setting [3]) is 149 nM.

As for `CCCN1C(=O)OC(C)(C)c2cc(NS(=O)(=O)Cc3c(F)c(F)c(C)c(F)c3F)ccc21` [Compound 0304], the “EC50 value with PYR1 receptor-HAB1 complex as fraction of that of ABA” value in experiment [2] is recorded as 1/24. Also, the EC50 in experiment [1] (setting [3]) came to 167 nM.
